According to BindingDB's records for doi:10.1021/jm0205752 (University of Queensland, 2004):

Target: T1, Alpha-2A adrenergic receptor [16-465] (Rattus norvegicus, UniProt P22909)
T1 construct: 16-465
T1 sequence (P22909 whole entry): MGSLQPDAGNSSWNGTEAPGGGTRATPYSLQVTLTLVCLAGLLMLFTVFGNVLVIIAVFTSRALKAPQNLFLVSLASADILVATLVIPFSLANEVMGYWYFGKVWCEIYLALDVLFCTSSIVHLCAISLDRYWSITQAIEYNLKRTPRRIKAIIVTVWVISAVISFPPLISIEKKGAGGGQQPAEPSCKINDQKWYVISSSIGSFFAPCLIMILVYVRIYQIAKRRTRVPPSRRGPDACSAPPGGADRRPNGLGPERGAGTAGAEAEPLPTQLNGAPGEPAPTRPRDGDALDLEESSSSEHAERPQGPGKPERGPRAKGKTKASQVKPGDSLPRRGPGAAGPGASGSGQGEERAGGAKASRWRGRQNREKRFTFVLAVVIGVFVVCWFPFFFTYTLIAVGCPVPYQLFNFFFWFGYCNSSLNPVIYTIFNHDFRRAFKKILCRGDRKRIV
Experiment: alpha-Adrenoceptor Radioligand Binding Assay
Conditions: pH 7.7; 25 °C
Method: The binding affinity of compound was evaluated using [3H] Clonidine as ligand in competition binding experiments. Nonspecific binding was determined as the concentration of ligand bound in the presence of 2 uM phentolamine. Ki values were determined by the equation: Ki = IC50/(1 + [clonidine]/KD).

SMILES: NS(=O)(=O)c1ccc2c(c1)CNCC2 [1,2,3,4-tetrahydroisoquinoline-7-sulfonamide]
- Ki: 100 µM
